Measured values reported in ChEMBL document CHEMBL4834412, “2,4,5-Trisubstituted Pyrimidines as Potent HIV-1 NNRTIs: Rational Design, Synthesis, Activity Evaluation, and Crystallographic Studies” (J Med Chem, 2021).

Tested on: Human immunodeficiency virus 1
Test: Antiviral activity against NNRTI-resistant HIV-1 RES056 harboring RT K103N/Y181C mutant infected in human MT4 cells assessed as protection against virus-induced cytopathogenicity after 5 days by MTT assay
Format: functional, organism-based
Details: Human immunodeficiency virus 1, RES056, MT4, 120 h

Structure (SMILES) | EC50
Cc1cc(C#N)cc(C)c1Oc1nc(NC2CCN(Cc3ccc(S(N)(=O)=O)cc3)CC2)ncc1-c1ccsc1 | 209 nM
Cc1cc(C#N)cc(C)c1Oc1nc(NC2CCN(Cc3ccc(C(N)=O)cc3)CC2)ncc1-c1ccsc1 | 415 nM
Cc1cc(C#N)cc(C)c1Oc1nc(NC2CCN(Cc3ccc(S(C)(=O)=O)cc3)CC2)ncc1-c1ccco1 | 233 nM
Cc1cc(C#N)cc(C)c1Oc1nc(NC2CCN(Cc3ccc(S(C)(=O)=O)cc3)CC2)ncc1-c1ccoc1 | 172 nM
Cc1cc(/C=C/C#N)cc(C)c1Oc1nc(NC2CCN(Cc3ccc(S(N)(=O)=O)cc3)CC2)ncc1-c1ccc(F)nc1 | 28.2 nM
Cc1cc(C#N)cc(C)c1Oc1nc(NC2CCN(Cc3ccc(C(N)=O)cc3)CC2)ncc1-c1ccccc1 | 562 nM
Cc1cc(C#N)cc(C)c1Oc1nc(NC2CCN(Cc3ccc(S(C)(=O)=O)cc3)CC2)ncc1-c1ccccc1 | 590 nM
Cc1cc(C#N)cc(C)c1Oc1nc(NC2CCN(Cc3ccc(S(N)(=O)=O)cc3)CC2)ncc1-c1ccco1 | 218 nM
Cc1cc(C#N)cc(C)c1Oc1nc(NC2CCN(Cc3ccc(C(N)=O)cc3)CC2)ncc1-c1ccoc1 | 108 nM

Tested on: Human immunodeficiency virus 1
Test: Antiviral activity against HIV-1 harboring RT F227L/V106A mutant infected in human MT4 cells assessed as protection against virus-induced cytopathogenicity after 5 days by MTT assay
Format: functional, organism-based
Details: Human immunodeficiency virus 1, MT4, 120 h

Structure (SMILES) | EC50
Cc1cc(C#N)cc(C)c1Oc1nc(NC2CCN(Cc3ccc(S(N)(=O)=O)cc3)CC2)ncc1-c1ccsc1 | 85.3 nM
Cc1cc(C#N)cc(C)c1Oc1nc(NC2CCN(Cc3ccc(C(N)=O)cc3)CC2)ncc1-c1ccsc1 | 325 nM
Cc1cc(C#N)cc(C)c1Oc1nc(NC2CCN(Cc3ccc(S(C)(=O)=O)cc3)CC2)ncc1-c1ccco1 | 110 nM
Cc1cc(C#N)cc(C)c1Oc1nc(NC2CCN(Cc3ccc(S(C)(=O)=O)cc3)CC2)ncc1-c1ccoc1 | 41.5 nM
Cc1cc(/C=C/C#N)cc(C)c1Oc1nc(NC2CCN(Cc3ccc(S(N)(=O)=O)cc3)CC2)ncc1-c1ccc(F)nc1 | 23.1 nM
Cc1cc(C#N)cc(C)c1Oc1nc(NC2CCN(Cc3ccc(C(N)=O)cc3)CC2)ncc1-c1ccccc1 | 393 nM
Cc1cc(C#N)cc(C)c1Oc1nc(NC2CCN(Cc3ccc(S(C)(=O)=O)cc3)CC2)ncc1-c1ccccc1 | 218 nM
Cc1cc(C#N)cc(C)c1Oc1nc(NC2CCN(Cc3ccc(S(N)(=O)=O)cc3)CC2)ncc1-c1ccco1 | 128 nM
Cc1cc(C#N)cc(C)c1Oc1nc(NC2CCN(Cc3ccc(C(N)=O)cc3)CC2)ncc1-c1ccoc1 | 307 nM

Tested on: Human immunodeficiency virus 1
Test: Antiviral activity against HIV-1 harboring RT E138K mutant infected in human MT4 cells assessed as protection against virus-induced cytopathogenicity after 5 days by MTT assay
Format: functional, organism-based
Details: Human immunodeficiency virus 1, MT4, 120 h

Structure (SMILES) | EC50
Cc1cc(C#N)cc(C)c1Oc1nc(NC2CCN(Cc3ccc(S(N)(=O)=O)cc3)CC2)ncc1-c1ccsc1 | 19.7 nM
Cc1cc(C#N)cc(C)c1Oc1nc(NC2CCN(Cc3ccc(C(N)=O)cc3)CC2)ncc1-c1ccsc1 | 22 nM
Cc1cc(C#N)cc(C)c1Oc1nc(NC2CCN(Cc3ccc(S(C)(=O)=O)cc3)CC2)ncc1-c1ccco1 | 27.4 nM
Cc1cc(C#N)cc(C)c1Oc1nc(NC2CCN(Cc3ccc(S(C)(=O)=O)cc3)CC2)ncc1-c1ccoc1 | 15.3 nM
Cc1cc(/C=C/C#N)cc(C)c1Oc1nc(NC2CCN(Cc3ccc(S(N)(=O)=O)cc3)CC2)ncc1-c1ccc(F)nc1 | 49.1 nM
Cc1cc(C#N)cc(C)c1Oc1nc(NC2CCN(Cc3ccc(C(N)=O)cc3)CC2)ncc1-c1ccccc1 | 17.1 nM
Cc1cc(C#N)cc(C)c1Oc1nc(NC2CCN(Cc3ccc(S(C)(=O)=O)cc3)CC2)ncc1-c1ccccc1 | 32.1 nM
Cc1cc(C#N)cc(C)c1Oc1nc(NC2CCN(Cc3ccc(S(N)(=O)=O)cc3)CC2)ncc1-c1ccco1 | 24.5 nM
Cc1cc(C#N)cc(C)c1Oc1nc(NC2CCN(Cc3ccc(C(N)=O)cc3)CC2)ncc1-c1ccoc1 | 11.2 nM

Tested on: Human immunodeficiency virus 1
Test: Antiviral activity against HIV-1 harboring RT L100I mutant infected in human MT4 cells assessed as protection against virus-induced cytopathogenicity after 5 days by MTT assay
Format: functional, organism-based
Details: Human immunodeficiency virus 1, MT4, 120 h

Structure (SMILES) | EC50
Cc1cc(C#N)cc(C)c1Oc1nc(NC2CCN(Cc3ccc(S(N)(=O)=O)cc3)CC2)ncc1-c1ccsc1 | 15.4 nM
Cc1cc(C#N)cc(C)c1Oc1nc(NC2CCN(Cc3ccc(C(N)=O)cc3)CC2)ncc1-c1ccsc1 | 62.6 nM
Cc1cc(C#N)cc(C)c1Oc1nc(NC2CCN(Cc3ccc(S(C)(=O)=O)cc3)CC2)ncc1-c1ccco1 | 20.4 nM
Cc1cc(C#N)cc(C)c1Oc1nc(NC2CCN(Cc3ccc(S(C)(=O)=O)cc3)CC2)ncc1-c1ccoc1 | 14.8 nM
Cc1cc(/C=C/C#N)cc(C)c1Oc1nc(NC2CCN(Cc3ccc(S(N)(=O)=O)cc3)CC2)ncc1-c1ccc(F)nc1 | 11.4 nM
Cc1cc(C#N)cc(C)c1Oc1nc(NC2CCN(Cc3ccc(C(N)=O)cc3)CC2)ncc1-c1ccccc1 | 151 nM
Cc1cc(C#N)cc(C)c1Oc1nc(NC2CCN(Cc3ccc(S(C)(=O)=O)cc3)CC2)ncc1-c1ccccc1 | 71.7 nM
Cc1cc(C#N)cc(C)c1Oc1nc(NC2CCN(Cc3ccc(S(N)(=O)=O)cc3)CC2)ncc1-c1ccco1 | 20.9 nM
Cc1cc(C#N)cc(C)c1Oc1nc(NC2CCN(Cc3ccc(C(N)=O)cc3)CC2)ncc1-c1ccoc1 | 10.1 nM

Tested on: Human immunodeficiency virus 2
Test: Antiviral activity against HIV-2 ROD infected in human MT4 cells assessed as protection against virus-induced cytopathogenicity after 5 days by MTT assay
Details: Human immunodeficiency virus 2, ROD, MT4, 120 h

Structure (SMILES) | EC50
Cc1cc(C#N)cc(C)c1Oc1nc(NC2CCN(Cc3ccc(S(N)(=O)=O)cc3)CC2)ncc1-c1ccsc1 | > 6120 nM
Cc1cc(C#N)cc(C)c1Oc1nc(NC2CCN(Cc3ccc(S(C)(=O)=O)cc3)CC2)ncc1-c1ccco1 | > 7460 nM
Cc1cc(C#N)cc(C)c1Oc1nc(NC2CCN(Cc3ccc(C(N)=O)cc3)CC2)ncc1-c1ccoc1 | > 182000 nM

Tested on: Human immunodeficiency virus 1
Test: Antiviral activity against HIV-1 strain IIIB infected in human MT4 cells assessed as protection against virus-induced cytopathicity after 5 days by MTT assay
Format: functional, organism-based
Details: Human immunodeficiency virus 1, IIIB, MT4, 120 h

Structure (SMILES) | EC50
Cc1cc(C#N)cc(C)c1Oc1nc(NC2CCN(Cc3ccc(S(N)(=O)=O)cc3)CC2)ncc1-c1ccsc1 | 5.09 nM
Cc1cc(C#N)cc(C)c1Oc1nc(NC2CCN(Cc3ccc(C(N)=O)cc3)CC2)ncc1-c1ccsc1 | 4.22 nM
Cc1cc(C#N)cc(C)c1Oc1nc(NC2CCN(Cc3ccc(S(C)(=O)=O)cc3)CC2)ncc1-c1ccco1 | 4.52 nM
Cc1cc(C#N)cc(C)c1Oc1nc(NC2CCN(Cc3ccc(S(C)(=O)=O)cc3)CC2)ncc1-c1ccoc1 | 4.75 nM
Cc1cc(/C=C/C#N)cc(C)c1Oc1nc(NC2CCN(Cc3ccc(S(N)(=O)=O)cc3)CC2)ncc1-c1ccc(F)nc1 | 5.8 nM
Cc1cc(C#N)cc(C)c1Oc1nc(NC2CCN(Cc3ccc(C(N)=O)cc3)CC2)ncc1-c1ccccc1 | 5.11 nM
Cc1cc(C#N)cc(C)c1Oc1nc(NC2CCN(Cc3ccc(S(C)(=O)=O)cc3)CC2)ncc1-c1ccccc1 | 4.93 nM
Cc1cc(C#N)cc(C)c1Oc1nc(NC2CCN(Cc3ccc(S(N)(=O)=O)cc3)CC2)ncc1-c1ccco1 | 4.4 nM
Cc1cc(C#N)cc(C)c1Oc1nc(NC2CCN(Cc3ccc(C(N)=O)cc3)CC2)ncc1-c1ccoc1 | 3.4 nM

Tested on: Human immunodeficiency virus 1
Test: Antiviral activity against HIV-1 harboring RT Y181C mutant infected in human MT4 cells assessed as protection against virus-induced cytopathogenicity after 5 days by MTT assay
Format: functional, organism-based
Details: Human immunodeficiency virus 1, MT4, 120 h

Structure (SMILES) | EC50
Cc1cc(C#N)cc(C)c1Oc1nc(NC2CCN(Cc3ccc(S(N)(=O)=O)cc3)CC2)ncc1-c1ccsc1 | 12.3 nM
Cc1cc(C#N)cc(C)c1Oc1nc(NC2CCN(Cc3ccc(C(N)=O)cc3)CC2)ncc1-c1ccsc1 | 26.4 nM
Cc1cc(C#N)cc(C)c1Oc1nc(NC2CCN(Cc3ccc(S(C)(=O)=O)cc3)CC2)ncc1-c1ccco1 | 26.4 nM
Cc1cc(C#N)cc(C)c1Oc1nc(NC2CCN(Cc3ccc(S(C)(=O)=O)cc3)CC2)ncc1-c1ccoc1 | 14.4 nM
Cc1cc(/C=C/C#N)cc(C)c1Oc1nc(NC2CCN(Cc3ccc(S(N)(=O)=O)cc3)CC2)ncc1-c1ccc(F)nc1 | 15.4 nM
Cc1cc(C#N)cc(C)c1Oc1nc(NC2CCN(Cc3ccc(C(N)=O)cc3)CC2)ncc1-c1ccccc1 | 28.7 nM
Cc1cc(C#N)cc(C)c1Oc1nc(NC2CCN(Cc3ccc(S(C)(=O)=O)cc3)CC2)ncc1-c1ccccc1 | 33.7 nM
Cc1cc(C#N)cc(C)c1Oc1nc(NC2CCN(Cc3ccc(S(N)(=O)=O)cc3)CC2)ncc1-c1ccco1 | 24.8 nM
Cc1cc(C#N)cc(C)c1Oc1nc(NC2CCN(Cc3ccc(C(N)=O)cc3)CC2)ncc1-c1ccoc1 | 9.81 nM

Tested on: Human immunodeficiency virus 1
Test: Antiviral activity against HIV-1 harboring RT K103N mutant infected in human MT4 cells assessed as protection against virus-induced cytopathogenicity after 5 days by MTT assay
Format: functional, organism-based
Details: Human immunodeficiency virus 1, MT4, 120 h

Structure (SMILES) | EC50
Cc1cc(C#N)cc(C)c1Oc1nc(NC2CCN(Cc3ccc(S(N)(=O)=O)cc3)CC2)ncc1-c1ccsc1 | 4.7 nM
Cc1cc(C#N)cc(C)c1Oc1nc(NC2CCN(Cc3ccc(C(N)=O)cc3)CC2)ncc1-c1ccsc1 | 5.52 nM
Cc1cc(C#N)cc(C)c1Oc1nc(NC2CCN(Cc3ccc(S(C)(=O)=O)cc3)CC2)ncc1-c1ccco1 | 5.92 nM
Cc1cc(C#N)cc(C)c1Oc1nc(NC2CCN(Cc3ccc(S(C)(=O)=O)cc3)CC2)ncc1-c1ccoc1 | 4.39 nM
Cc1cc(/C=C/C#N)cc(C)c1Oc1nc(NC2CCN(Cc3ccc(S(N)(=O)=O)cc3)CC2)ncc1-c1ccc(F)nc1 | 7.5 nM
Cc1cc(C#N)cc(C)c1Oc1nc(NC2CCN(Cc3ccc(C(N)=O)cc3)CC2)ncc1-c1ccccc1 | 9.15 nM
Cc1cc(C#N)cc(C)c1Oc1nc(NC2CCN(Cc3ccc(S(C)(=O)=O)cc3)CC2)ncc1-c1ccccc1 | 11.7 nM
Cc1cc(C#N)cc(C)c1Oc1nc(NC2CCN(Cc3ccc(S(N)(=O)=O)cc3)CC2)ncc1-c1ccco1 | 5.33 nM
Cc1cc(C#N)cc(C)c1Oc1nc(NC2CCN(Cc3ccc(C(N)=O)cc3)CC2)ncc1-c1ccoc1 | 3.44 nM

Tested on: Human immunodeficiency virus 1
Test: Antiviral activity against HIV-1 harboring RT Y188L mutant infected in human MT4 cells assessed as protection against virus-induced cytopathogenicity after 5 days by MTT assay
Format: functional, organism-based
Details: Human immunodeficiency virus 1, MT4, 120 h

Structure (SMILES) | EC50
Cc1cc(C#N)cc(C)c1Oc1nc(NC2CCN(Cc3ccc(S(N)(=O)=O)cc3)CC2)ncc1-c1ccsc1 | 30.3 nM
Cc1cc(C#N)cc(C)c1Oc1nc(NC2CCN(Cc3ccc(C(N)=O)cc3)CC2)ncc1-c1ccsc1 | 30 nM
Cc1cc(C#N)cc(C)c1Oc1nc(NC2CCN(Cc3ccc(S(C)(=O)=O)cc3)CC2)ncc1-c1ccco1 | 28.8 nM
Cc1cc(C#N)cc(C)c1Oc1nc(NC2CCN(Cc3ccc(S(C)(=O)=O)cc3)CC2)ncc1-c1ccoc1 | 24.2 nM
Cc1cc(/C=C/C#N)cc(C)c1Oc1nc(NC2CCN(Cc3ccc(S(N)(=O)=O)cc3)CC2)ncc1-c1ccc(F)nc1 | 36.7 nM
Cc1cc(C#N)cc(C)c1Oc1nc(NC2CCN(Cc3ccc(C(N)=O)cc3)CC2)ncc1-c1ccccc1 | 30.5 nM
Cc1cc(C#N)cc(C)c1Oc1nc(NC2CCN(Cc3ccc(S(C)(=O)=O)cc3)CC2)ncc1-c1ccccc1 | 35.5 nM
Cc1cc(C#N)cc(C)c1Oc1nc(NC2CCN(Cc3ccc(S(N)(=O)=O)cc3)CC2)ncc1-c1ccco1 | 36.5 nM
Cc1cc(C#N)cc(C)c1Oc1nc(NC2CCN(Cc3ccc(C(N)=O)cc3)CC2)ncc1-c1ccoc1 | 21.1 nM
